Data reported in the supplement of paper PMC10733146.

Legend:
Assay in all cases: viability relative to DMSO control (fraction); higher = less drug effect (more viable cells)
Conditions in all cases: 48 h
[1] = compound: CCN(c1cc(-c2ccc(CN3CCOCC3)cc2)cc(C(=O)NCc2c(C)cc(C)[nH]c2=O)c1C)C1CCOCC1 [EPZ-6438]
How it was run: (§1)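 The cells were primary mononuclear tumour cells, either fresh or cryopreserved, isolated by Ficoll from blood or bone marrow or derived from processed lymph node. Each well of a 384-well plate received 4 × 10^4 cells onto compounds pre-plated at five concentrations, with one well per concentration. The medium was RPMI-1640 with penicillin/streptomycin, L-glutamine and human serum, and plates stood at 37 °C and 5% CO2 for 48 h. Viability is reported as CellTiter-Glo luminescence relative to the median of 16 inner DMSO wells.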

[2] = compound: CCNC(=O)C[C@@H]1N=C(c2ccc(Cl)cc2)c2cc(OC)ccc2-n2c(C)nnc21 [I-BET-762]
How it was run: as §1

[3] = compound: CC(=O)c1c(C)c2cnc(Nc3ccc(N4CCNCC4)cn3)nc2n(C2CCCC2)c1=O [Palbociclib]
How it was run: as §1

[4] = compound: O=C(/C=C\n1cnc(-c2cc(C(F)(F)F)cc(C(F)(F)F)c2)n1)NNc1cnccn1 [Selinexor]
How it was run: as §1

[5] = compound: O=C1CCC(N2C(=O)c3ccccc3C2=O)C(=O)N1 [Thalidomide]
How it was run: as §1

[6] = compound: CCN(CCCOc1ccc2c(Nc3cc(CC(=O)Nc4cccc(F)c4)[nH]n3)ncnc2c1)CCOP(=O)(O)O [Barasertib]
How it was run: as §1

[7] = compound: O=C(Nc1nc2cccc(-c3ccc(CN4CCS(=O)(=O)CC4)cc3)n2n1)C1CC1 [Filgotinib]
How it was run: as §1

[8] = compound: CC1(C)CCC(c2ccc(Cl)cc2)=C(CN2CCN(c3ccc(C(=O)NS(=O)(=O)c4ccc(N[C@H](CCN5CCOCC5)CSc5ccccc5)c(S(=O)(=O)C(F)(F)F)c4)cc3)CC2)C1 [Navitoclax]
How it was run: as §1

[9] = compound: CCS(=O)(=O)N1CCC([C@@H](C)n2c(C)c(C(=O)NCc3c(OC)cc(C)[nH]c3=O)c3ccccc32)CC1 [CPI-169]
How it was run: as §1

[10] = compound: O=C(NO)c1cccc(C(=O)NCCc2ccccc2)c1
How it was run: as §1

[11] = compound: C[C@H](NC(=O)CCC(F)(F)F)C(=O)N[C@@H]1C(=O)N(CCO)c2ncccc2-c2ccccc21
How it was run: as §1

[12] = compound: CC1(C)CCC(CN2CCN(c3ccc(C(=O)NS(=O)(=O)c4ccc(NCC5CCOCC5)c([N+](=O)[O-])c4)c(Oc4cnc5[nH]ccc5c4)c3)CC2)=C(c2ccc(Cl)cc2)C1 [Venetoclax]
How it was run: as §1

[13] = compound: CCc1ccc(/C=C2/SC(=S)NC2=O)cc1
How it was run: as §1

[14] = compound: C[C@H]1C[C@@H](n2c(Nc3ccc(OC(F)(F)F)cc3)nc3cc(CCC(=O)O)ccc32)CC(C)(C)C1
How it was run: as §1

primary AML patient cells (S085)
viability ([1]; 0.024 µM): 1.16
viability ([1]; 0.12 µM): 1.13
viability ([1]; 0.6 µM): 1.09
viability ([1]; 3 µM): 1.08
viability ([1]; 15 µM): 0.89
viability ([2]; 0.008 µM): 0.91
viability ([2]; 0.04 µM): 0.903
viability ([2]; 0.2 µM): 0.628
viability ([2]; 1 µM): 0.326
viability ([2]; 5 µM): 0.186
viability ([3]; 0.024 µM): 0.886
viability ([3]; 0.12 µM): 0.93
viability ([3]; 0.6 µM): 0.836
viability ([3]; 3 µM): 0.678
viability ([3]; 15 µM): 0.199
viability ([4]; 0.008 µM): 1.23
viability ([4]; 0.04 µM): 0.794
viability ([4]; 0.2 µM): 0.641
viability ([4]; 1 µM): 0.28
viability ([4]; 5 µM): 0.198
viability ([5]; 0.032 µM): 0.962
viability ([5]; 0.16 µM): 1.02
viability ([5]; 0.8 µM): 0.828
viability ([5]; 4 µM): 0.8
viability ([5]; 20 µM): 0.899
viability ([6]; 0.0008 µM): 0.98
viability ([6]; 0.004 µM): 0.816
viability ([6]; 0.02 µM): 0.848
viability ([6]; 0.1 µM): 0.876
viability ([6]; 0.5 µM): 1.02
viability ([7]; 0.024 µM): 1.08
viability ([7]; 0.12 µM): 1.12
viability ([7]; 0.6 µM): 0.912
viability ([7]; 3 µM): 0.851
viability ([7]; 15 µM): 0.35
viability ([8]; 0.0032 µM): 0.985
viability ([8]; 0.016 µM): 0.654
viability ([8]; 0.08 µM): 0.352
viability ([8]; 0.4 µM): 0.146
viability ([8]; 2 µM): 0.0937
viability ([9]; 0.024 µM): 1.03
viability ([9]; 0.12 µM): 1.02
viability ([9]; 0.6 µM): 0.96
viability ([9]; 3 µM): 1.2
viability ([9]; 15 µM): 0.866
viability ([10]; 0.024 µM): 1.07
viability ([10]; 0.12 µM): 1.22
viability ([10]; 0.6 µM): 1.11
viability ([10]; 3 µM): 0.958
viability ([10]; 15 µM): 0.927
viability ([11]; 0.016 µM): 1.06
viability ([11]; 0.08 µM): 0.955
viability ([11]; 0.4 µM): 0.934
viability ([11]; 2 µM): 1.24
viability ([11]; 10 µM): 0.951
viability ([12]; 0.00064 µM): 0.916
viability ([12]; 0.0032 µM): 0.62
viability ([12]; 0.016 µM): 0.43
viability ([12]; 0.08 µM): 0.355
viability ([12]; 0.4 µM): 0.278
viability ([13]; 0.024 µM): 0.788
viability ([13]; 0.12 µM): 0.878
viability ([13]; 0.6 µM): 1.01
viability ([13]; 3 µM): 0.834
viability ([13]; 15 µM): 1
viability ([14]; 0.024 µM): 1.26
viability ([14]; 0.12 µM): 1.87
viability ([14]; 0.6 µM): 1
viability ([14]; 3 µM): 1
viability ([14]; 15 µM): 0.874

primary MCL patient cells (S063)
viability ([1]; 0.024 µM): 1.04
viability ([1]; 0.12 µM): 0.992
viability ([1]; 0.6 µM): 1.04
viability ([1]; 3 µM): 1.01
viability ([1]; 15 µM): 0.944
viability ([2]; 0.008 µM): 1.03
viability ([2]; 0.04 µM): 1.04
viability ([2]; 0.2 µM): 1.05
viability ([2]; 1 µM): 0.866
viability ([2]; 5 µM): 0.711
viability ([3]; 0.024 µM): 1.03
viability ([3]; 0.12 µM): 0.957
viability ([3]; 0.6 µM): 0.887
viability ([3]; 3 µM): 0.567
viability ([3]; 15 µM): 0.291
viability ([4]; 0.008 µM): 0.945
viability ([4]; 0.04 µM): 0.95
viability ([4]; 0.2 µM): 0.811
viability ([4]; 1 µM): 0.333
viability ([4]; 5 µM): 0.363
viability ([5]; 0.032 µM): 1.01
viability ([5]; 0.16 µM): 0.925
viability ([5]; 0.8 µM): 0.976
viability ([5]; 4 µM): 1.02
viability ([5]; 20 µM): 1.04
viability ([6]; 0.0008 µM): 0.936
viability ([6]; 0.004 µM): 0.879
viability ([6]; 0.02 µM): 0.953
viability ([6]; 0.1 µM): 0.893
viability ([6]; 0.5 µM): 1.04
viability ([7]; 0.024 µM): 0.893
viability ([7]; 0.12 µM): 0.937
viability ([7]; 0.6 µM): 0.93
viability ([7]; 3 µM): 0.939
viability ([7]; 15 µM): 0.253
viability ([8]; 0.0032 µM): 1.04
viability ([8]; 0.016 µM): 0.983
viability ([8]; 0.08 µM): 0.753
viability ([8]; 0.4 µM): 0.392
viability ([8]; 2 µM): 0.186
viability ([9]; 0.024 µM): 1
viability ([9]; 0.12 µM): 1.1
viability ([9]; 0.6 µM): 0.963
viability ([9]; 3 µM): 1.06
viability ([9]; 15 µM): 0.959
viability ([10]; 0.024 µM): 0.981
viability ([10]; 0.12 µM): 0.949
viability ([10]; 0.6 µM): 1.01
viability ([10]; 3 µM): 1.03
viability ([10]; 15 µM): 0.983
viability ([11]; 0.016 µM): 1.1
viability ([11]; 0.08 µM): 1.11
viability ([11]; 0.4 µM): 1.01
viability ([11]; 2 µM): 1.04
viability ([11]; 10 µM): 0.885
viability ([12]; 0.00064 µM): 1.06
viability ([12]; 0.0032 µM): 0.901
viability ([12]; 0.016 µM): 0.804
viability ([12]; 0.08 µM): 0.474
viability ([12]; 0.4 µM): 0.238
viability ([13]; 0.024 µM): 0.863
viability ([13]; 0.12 µM): 0.924
viability ([13]; 0.6 µM): 0.912
viability ([13]; 3 µM): 0.901
viability ([13]; 15 µM): 0.903
viability ([14]; 0.024 µM): 0.864
viability ([14]; 0.12 µM): 1.16
viability ([14]; 0.6 µM): 1.01
viability ([14]; 3 µM): 0.902
viability ([14]; 15 µM): 0.94

primary AML patient cells (S089)
viability ([1]; 0.024 µM): 0.971
viability ([1]; 0.12 µM): 1.06
viability ([1]; 0.6 µM): 1.01
viability ([1]; 3 µM): 0.964
viability ([1]; 15 µM): 0.65
viability ([2]; 0.008 µM): 0.972
viability ([2]; 0.04 µM): 0.928
viability ([2]; 0.2 µM): 0.863
viability ([2]; 1 µM): 0.621
viability ([2]; 5 µM): 0.391
viability ([3]; 0.024 µM): 0.794
viability ([3]; 0.12 µM): 0.871
viability ([3]; 0.6 µM): 0.604
viability ([3]; 3 µM): 0.722
viability ([3]; 15 µM): 0.0784
viability ([4]; 0.008 µM): 0.73
viability ([4]; 0.04 µM): 0.784
viability ([4]; 0.2 µM): 0.559
viability ([4]; 1 µM): 0.389
viability ([4]; 5 µM): 0.216
viability ([5]; 0.032 µM): 0.948
viability ([5]; 0.16 µM): 0.951
viability ([5]; 0.8 µM): 0.93
viability ([5]; 4 µM): 0.803
viability ([5]; 20 µM): 0.952
viability ([6]; 0.0008 µM): 1.08
viability ([6]; 0.004 µM): 1.06
viability ([6]; 0.02 µM): 0.725
viability ([6]; 0.1 µM): 0.701
viability ([6]; 0.5 µM): 0.735
viability ([7]; 0.024 µM): 0.778
viability ([7]; 0.12 µM): 0.938
viability ([7]; 0.6 µM): 0.846
viability ([7]; 3 µM): 0.752
viability ([7]; 15 µM): 0.278
viability ([8]; 0.0032 µM): 1.02
viability ([8]; 0.016 µM): 0.783
viability ([8]; 0.08 µM): 0.957
viability ([8]; 0.4 µM): 0.685
viability ([8]; 2 µM): 0.521
viability ([9]; 0.024 µM): 0.734
viability ([9]; 0.12 µM): 0.62
viability ([9]; 0.6 µM): 0.674
viability ([9]; 3 µM): 0.677
viability ([9]; 15 µM): 0.661
viability ([10]; 0.024 µM): 0.882
viability ([10]; 0.12 µM): 0.862
viability ([10]; 0.6 µM): 0.713
viability ([10]; 3 µM): 0.657
viability ([10]; 15 µM): 0.693
viability ([11]; 0.016 µM): 0.788
viability ([11]; 0.08 µM): 1.14
viability ([11]; 0.4 µM): 1
viability ([11]; 2 µM): 0.996
viability ([11]; 10 µM): 0.888
viability ([12]; 0.00064 µM): 1.01
viability ([12]; 0.0032 µM): 0.937
viability ([12]; 0.016 µM): 0.891
viability ([12]; 0.08 µM): 0.645
viability ([12]; 0.4 µM): 0.616
viability ([13]; 0.024 µM): 0.605
viability ([13]; 0.12 µM): 0.87
viability ([13]; 0.6 µM): 0.878
viability ([13]; 3 µM): 0.648
viability ([13]; 15 µM): 0.905
viability ([14]; 0.024 µM): 0.821
viability ([14]; 0.12 µM): 0.639
viability ([14]; 0.6 µM): 0.668
viability ([14]; 3 µM): 0.681
viability ([14]; 15 µM): 0.489
